{
  "source": "patent US12048678B2",
  "about": "“Compounds for treating myelin related disorders” (Case Western Reserve University, priority 2018, dated 2024)",
  "key": {"EBP": {"molecular_target": "T1, EBP (Mus musculus, UniProt P70245)", "T1 construct": "active EBP was obtained from mouse microsomes; from tissue", "T1 sequence (P70245 1-230)": "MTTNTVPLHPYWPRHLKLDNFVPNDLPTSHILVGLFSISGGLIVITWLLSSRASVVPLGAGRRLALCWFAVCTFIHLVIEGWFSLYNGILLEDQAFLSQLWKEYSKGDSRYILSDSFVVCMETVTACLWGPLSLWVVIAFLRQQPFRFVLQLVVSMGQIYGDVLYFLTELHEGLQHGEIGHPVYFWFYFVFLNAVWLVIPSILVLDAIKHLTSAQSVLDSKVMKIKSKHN", "experiment": "EBP enzymatic assay", "assay_type": "biochemical", "conditions": "10 μM, FIG. 4a", "procedure": "EBP enzymatic activity was measured using a reported method with slight modifications: active EBP was obtained from mouse microsomes, inhibitors were added, zymostenol was added at a final concentration of 25 μM in a final reaction volume of 500 μl, and the reaction incubated at 37° C. for 2 h. Sterols were extracted using 3×1 ml hexanes, cholesterol-d7 was added to enable quantitation, and the pooled organics were dried (Na2SO4) and evaporated under nitrogen gas. Samples were then silylated and analyzed using GC/MS as described above."}, "[1]": {"molecular_target": "T2, estrogen receptor (T47D cells) (Homo sapiens, UniProt P03372)", "T2 construct": "estrogen dependent growth of T47D cells; endogenous in cells; host or cells: T47D", "T2 sequence (P03372 1-595)": "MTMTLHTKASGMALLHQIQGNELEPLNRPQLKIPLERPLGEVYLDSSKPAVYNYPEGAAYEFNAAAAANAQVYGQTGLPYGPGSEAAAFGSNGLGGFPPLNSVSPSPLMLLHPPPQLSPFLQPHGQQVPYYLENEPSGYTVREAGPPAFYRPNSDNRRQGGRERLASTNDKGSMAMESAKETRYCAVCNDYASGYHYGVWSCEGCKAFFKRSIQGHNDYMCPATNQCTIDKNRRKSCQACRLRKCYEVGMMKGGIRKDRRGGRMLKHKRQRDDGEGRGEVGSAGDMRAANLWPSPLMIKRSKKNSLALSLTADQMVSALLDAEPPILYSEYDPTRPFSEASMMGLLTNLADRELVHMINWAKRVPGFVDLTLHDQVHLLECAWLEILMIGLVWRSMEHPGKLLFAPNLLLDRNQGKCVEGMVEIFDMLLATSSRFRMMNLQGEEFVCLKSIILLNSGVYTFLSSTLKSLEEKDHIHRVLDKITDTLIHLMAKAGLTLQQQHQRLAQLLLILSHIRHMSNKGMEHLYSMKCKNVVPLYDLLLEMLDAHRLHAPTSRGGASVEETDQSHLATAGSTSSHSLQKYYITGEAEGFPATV", "experiment": "Estrogen-dependent cell proliferation assay", "assay_type": "cell-based", "conditions": "Compound 1 at 1 μM, TASIN-1 100 nM", "experimental": "Estrogen-dependent cell proliferation was measured as previously described with minor modifications. After growth in estrogen-free media (Phenol red-free RPMI supplemented with 10% charcoal stripped fetal bovine serum) for 5 days, cells were seeded at 2,500 cells/well into 96 well plates. The following day 3× drug containing media was added to triplicate wells and cells were allowed to grow for an additional 5 days at 37° C. in standard a 5% CO2 humidified incubator. Total DNA per well was measured using an adaptation of the method of Labarca and Paigen. At this time media was removed, cells were washed one time with 0.25×PBS and 100 μl of distilled water was added. […] After incubation at room temperature for 2 hours, plates were read in a SpectraMax i3 fluorescent plate reader (Molecular Devices, Sunnyvale, CA) with excitation at 360 nm and emission at 460 nm. All values were converted to microgram DNA per well using a standard curve derived from purified salmon testes DNA."}, "M1 muscarinic receptor": {"molecular_target": "T3, M1 muscarinic receptor (Homo sapiens, UniProt P11229)", "T3 sequence (P11229 1-460)": "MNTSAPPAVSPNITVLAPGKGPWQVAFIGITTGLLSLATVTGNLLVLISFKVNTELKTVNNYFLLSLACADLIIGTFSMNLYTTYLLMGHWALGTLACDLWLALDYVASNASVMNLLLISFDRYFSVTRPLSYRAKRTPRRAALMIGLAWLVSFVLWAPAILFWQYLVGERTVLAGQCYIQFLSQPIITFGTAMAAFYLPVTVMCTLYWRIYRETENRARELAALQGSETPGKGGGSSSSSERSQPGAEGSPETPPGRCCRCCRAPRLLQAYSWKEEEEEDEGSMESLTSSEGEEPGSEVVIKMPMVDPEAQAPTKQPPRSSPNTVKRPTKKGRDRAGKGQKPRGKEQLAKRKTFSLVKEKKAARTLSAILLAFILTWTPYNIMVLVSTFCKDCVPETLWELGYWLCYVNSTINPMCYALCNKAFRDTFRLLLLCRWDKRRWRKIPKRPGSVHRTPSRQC", "experiment": "Muscarinic receptor antagonism assay (GeneBLAzer M1-NFAT-bla CHO-K1 cells)", "assay_type": "cell-based", "conditions": "Compound 1 at 1 μM, TASIN-1 100 nM; concentration maximally effective for oligodendrocyte formation", "experimental": "GeneBLAzer M1-NFAT-bla CHO-K1 cells (or M3- or M5-NFAT-bla CHO-K1 cells)(ThermoFisher) were thawed into Assay Media (DMEM, 10% dialyzed FBS, 25 mM HEPES pH 7.3, 0.1 mM NEAA). 10,000 cells/well were added to a 384-well TC treated assay plate and incubated 16-24 h at 37° C. 4 μl of a 10× stock of antimuscarinic molecules was added to the plate and incubated 30 min. 4 μl of 10× control agonist Carbachol at the pre-determined EC80 concentration was added to wells containing antimuscarinic molecules. The plate was incubated 5 h and 8 μl of 1 μM Substrate+Solution D Loading Solution was added to each well and the plate was incubated 2 h at room temperature before reading on a fluorescence plate reader."}},
  "data": [
    {"smiles": "c1ccc(-c2ccc(CN3CCCCCCC3)cc2)cc1", "note": "[Compound 1]", "values": [
      {"measurement": "EBP inhibition in an in vitro enzymatic assay", "setting": "EBP", "result": "enhanced potency for EBP inhibition"},
      {"measurement": "effect in cell-based assay for the estrogen receptor (estrogen dependent growth of T47D cells)", "setting": "[1]", "result": "little affinity"},
      {"measurement": "effect in cell-based assay for the M1 muscarinic receptor", "setting": "M1 muscarinic receptor", "result": "little affinity"}
    ]}
  ]
}
